In patent US11572369B2, “Bicyclic pyridine compositions and methods of using the same for cancer therapy” (UNIVERSITY OF SOUTH CAROLINA, priority 2019, dated 2023):

How the values were obtained:
[1] = biological target: T1, EGFR(L861Q) (Homo sapiens, UniProt P00533, L861Q); assay: KINOMEscan; assay type: binding; settings: 2000 nM
T1 construct: purchased DiscoveRx (KINOMEscan scanMAX panel)

[2] = test system: MYC-CAP-CR cells; assay: Short-term cell proliferation assay, MYC-CAP-CR; assay type: cell-based, murine; settings: androgen-containing media
[3] = biological target: T2, PRKG1 (Homo sapiens, UniProt Q13976); assay: KINOMEscan; assay type: binding; settings: 2000 nM
T2 construct: purchased DiscoveRx (KINOMEscan scanMAX panel)

[4] = test system: MV4-11 cells; assay: MV4-11-Luc proliferation assay; settings: Homo sapiens, MV4-11, read-out: Inhibition Potency MV4-11-Luc Assay
[5] = biological target: ABL1(T315I)-phosphorylated (Homo sapiens, UniProt P00519, T315I); assay: KINOMEscan; assay type: binding; settings: 2000 nM
[6] = biological target: T3, RIOK2 (Homo sapiens, UniProt Q9BVS4); assay: Kd Elect binding assay (DiscoverX); settings: duplicates
T3 construct: DNA label (qPCR read-out); purchased DiscoverX (assay service)
Text: (§1) Nat. Biotechnol. 23, 329-336 (2005).

[7] = biological target: T4, GSK3A (Homo sapiens, UniProt P49840); assay: Kd Elect binding assay (DiscoverX); settings: duplicates
T4 construct: DNA label (qPCR read-out); purchased DiscoverX (assay service)
Text: as §1

[8] = biological target: T5, CSNK1A1 (Homo sapiens, UniProt P48729); assay: Kd Elect binding assay (DiscoverX); settings: duplicates
T5 construct: DNA label (qPCR read-out); purchased DiscoverX (assay service)
Text: as §1

[9] = biological target: T6, CDK8 (Homo sapiens, UniProt P49336); assay: Kd Elect binding assay (DiscoverX); settings: duplicates
T6 construct: DNA label (qPCR read-out); purchased DiscoverX (assay service)
Text: as §1

[10] = biological target: T7, CDK19 (Homo sapiens, UniProt Q9BWU1); assay: Kd Elect binding assay (DiscoverX); settings: duplicates
T7 construct: DNA label (qPCR read-out); purchased DiscoverX (assay service)
Text: as §1

[11] = test system: PSA expression in CRPC cell line C4-2; assay: PSA expression in C4-2 cell culture supernatant; assay type: cell-based; settings: C4-2, 96 h, read-out: IC50, suppression of PSA expression
Text: CDK8/19 inhibition decreases the expression of certain androgen-receptor (AR) inducible genes including PSA, the most common marker of prostate cancer, and the growth of castration-refractory prostate cancers (CRPC).

[12] = test system: MYC-CaP-CR tumors; assay: MYC-CaP-CR subcutaneous tumors in intact FVB male mice; assay type: in vivo, mouse; settings: intact (uncastrated) FVB male mice
[13] = Mouse oral PK of 15u/15w mixture at 30 mg/kg; settings: female CD1 mice, oral 30 mg/kg of each compound, latest timepoint 8 hrs
[14] = biological target: T8, SGK2 (Homo sapiens, UniProt Q9HBY8); assay: KINOMEscan; assay type: binding; settings: 2000 nM
T8 construct: purchased KINOMEscan (DiscoveRx)

[15] = biological target: T9, PIK3CA(E545A) (Homo sapiens, UniProt P42336, E545A); assay: KINOMEscan; assay type: binding; settings: 2000 nM
T9 construct: DNA label; purchased DiscoveRx (KINOMEscan scanMAX panel)

[16] = test system: NFκB activation in CDK8/19-deficient cells; assay: NFκB reporter assay in CDK8/19 double-knockout 293 reporter cells; settings: CDK8/19 double-knockout reporter cells
[17] = test system: MDA-MB-468 triple-negative breast cancer (TNBC) cells; assay: MDA-MB-468 long-term treatment in vitro; assay type: cell-based, Human
[18] = test system: CRPC cell line 22rv1 xenograft; assay: 22rv1 CRPC xenograft in castrated male nude mice; assay type: in vivo, mouse; settings: 50 mg/kg orally daily
Experimental: In another in vivo study, CRPC cell line 22rv1 was grown as a xenograft in castrated male nude mice.

[19] = Mouse PK, oral 1 mg/kg; assay type: in vivo; settings: female, FVB, serum, mice, oral (gavage) 1 mg/kg
[20] = biological target: T10, CHEK1 (Homo sapiens, UniProt O14757); assay: KINOMEscan; assay type: binding; settings: 2000 nM
T10 construct: DNA label (for qPCR read-out); purchased DiscoveRx (KINOMEscan scanMAX service)

[21] = biological target: T11, RSK2(Kin.Dom.1-N-terminal) (Homo sapiens, UniProt P51812); assay: KINOMEscan; assay type: binding; settings: 2000 nM
T11 construct: RSK2(Kin.Dom.1); purchased DiscoveRx (KINOMEscan scanMAX panel)

[22] = test system: 4T1 murine triple-negative breast cancer; assay: 4T1 TNBC lung metastasis survival after primary tumor removal; assay type: in vivo, mouse; settings: 25 mg/kg oral b.i.d. after removal of primary tumor
[23] = test system: alkaline phosphatase (ALPase) in bone marrow stromal cell line ST2; settings: concentration that enhances ALPase activity to 200% of control; ST2 cells; Saito (2013); cited from earlier work
[24] = Long-term MTD study, medicated diet, CD-1 mice; assay type: in vivo, mouse; settings: female CD-1 mice, 1000 ppm medicated diet, first week
Experimental: In another long-term MTD in vivo assay, groups of male and female CD-1 mice were fed regular diet (control) or 15u-medicated diet (500 ppm or 1000 ppm) for 4 or 5 weeks (FIG. 12B). The daily doses of 500 ppm and 1000 ppm groups were estimated to be about 50-100 mg/kg and 100-200 mg/kg, respectively, based on daily diet consumption.

[25] = test system: MDA-MB-468 xenografts; assay: MDA-MB-468 xenografts in NSG mice; assay type: in vivo, mouse; settings: 66 days
Experimental: To evaluate the effect of CDK8/19 inhibition on in vivo growth of MDA-MB-468 xenografts, 1 million cells with 40% Matrigel ([…] total volume) were injected s.c. into the right flanks of immunodeficient NSG female mice (9 weeks old). 11 days after inoculation, mice were randomized by tumor size into two groups (n=9), with the average tumor volume 115 mm^3 in each group.

[26] = Oral PK in female CD-1 mice, solution formulation; settings: oral gavage in solution, 30 mg/kg (15u series) or 16/18 mg/kg (15w series)
[27] = test system: CDK8/19; assay: NFκB Activity Assay (NFκB luciferase reporter, parental 293 cells); assay type: cell-based; settings: read-out: Inhibition Potency HEK293-NFkB-Luc Assay
[28] = medicated diet 250 ppm plus daily gavage 5 then 8 mg/kg

T8 sequence (Q9HBY8 whole entry): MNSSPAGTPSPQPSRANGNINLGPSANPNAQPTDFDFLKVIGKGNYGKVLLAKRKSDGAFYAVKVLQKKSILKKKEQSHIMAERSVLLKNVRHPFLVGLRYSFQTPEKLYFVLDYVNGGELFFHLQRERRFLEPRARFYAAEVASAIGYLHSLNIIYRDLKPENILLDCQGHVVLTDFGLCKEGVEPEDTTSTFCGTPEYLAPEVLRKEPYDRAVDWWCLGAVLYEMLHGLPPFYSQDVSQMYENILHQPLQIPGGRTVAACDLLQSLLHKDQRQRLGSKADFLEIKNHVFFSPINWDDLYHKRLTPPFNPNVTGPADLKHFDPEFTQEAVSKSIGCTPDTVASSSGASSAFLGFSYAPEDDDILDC
T10 sequence (O14757 whole entry): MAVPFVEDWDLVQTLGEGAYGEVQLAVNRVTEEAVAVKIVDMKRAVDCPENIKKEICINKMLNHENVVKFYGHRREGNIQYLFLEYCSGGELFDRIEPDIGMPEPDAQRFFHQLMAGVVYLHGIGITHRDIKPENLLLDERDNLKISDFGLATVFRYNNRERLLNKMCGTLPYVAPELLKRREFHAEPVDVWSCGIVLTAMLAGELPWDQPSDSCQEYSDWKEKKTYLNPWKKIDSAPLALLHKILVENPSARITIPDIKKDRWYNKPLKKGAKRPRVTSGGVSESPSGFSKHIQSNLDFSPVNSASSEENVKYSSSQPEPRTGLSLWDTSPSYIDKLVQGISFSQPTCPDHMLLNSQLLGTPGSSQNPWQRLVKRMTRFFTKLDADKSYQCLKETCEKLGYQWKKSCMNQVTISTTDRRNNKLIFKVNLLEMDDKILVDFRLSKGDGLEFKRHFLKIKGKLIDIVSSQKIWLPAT
T2 sequence (Q13976 whole entry): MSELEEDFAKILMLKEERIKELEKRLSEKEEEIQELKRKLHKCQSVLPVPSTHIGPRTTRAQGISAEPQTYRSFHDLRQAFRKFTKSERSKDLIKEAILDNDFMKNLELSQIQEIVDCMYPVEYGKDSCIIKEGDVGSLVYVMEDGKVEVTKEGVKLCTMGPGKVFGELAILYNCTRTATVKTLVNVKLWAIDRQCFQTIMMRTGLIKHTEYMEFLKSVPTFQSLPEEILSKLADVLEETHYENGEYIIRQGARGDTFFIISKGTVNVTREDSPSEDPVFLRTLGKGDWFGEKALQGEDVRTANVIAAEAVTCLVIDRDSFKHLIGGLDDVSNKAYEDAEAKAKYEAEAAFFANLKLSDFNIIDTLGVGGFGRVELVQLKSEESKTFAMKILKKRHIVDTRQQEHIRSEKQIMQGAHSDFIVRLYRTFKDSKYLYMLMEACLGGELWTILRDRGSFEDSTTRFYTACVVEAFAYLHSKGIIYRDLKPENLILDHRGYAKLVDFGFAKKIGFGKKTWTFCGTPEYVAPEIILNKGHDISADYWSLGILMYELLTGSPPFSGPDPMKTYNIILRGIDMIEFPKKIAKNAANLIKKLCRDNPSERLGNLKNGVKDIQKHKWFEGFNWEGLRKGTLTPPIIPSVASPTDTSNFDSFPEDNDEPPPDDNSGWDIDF
T9 sequence (P42336 whole entry E545A): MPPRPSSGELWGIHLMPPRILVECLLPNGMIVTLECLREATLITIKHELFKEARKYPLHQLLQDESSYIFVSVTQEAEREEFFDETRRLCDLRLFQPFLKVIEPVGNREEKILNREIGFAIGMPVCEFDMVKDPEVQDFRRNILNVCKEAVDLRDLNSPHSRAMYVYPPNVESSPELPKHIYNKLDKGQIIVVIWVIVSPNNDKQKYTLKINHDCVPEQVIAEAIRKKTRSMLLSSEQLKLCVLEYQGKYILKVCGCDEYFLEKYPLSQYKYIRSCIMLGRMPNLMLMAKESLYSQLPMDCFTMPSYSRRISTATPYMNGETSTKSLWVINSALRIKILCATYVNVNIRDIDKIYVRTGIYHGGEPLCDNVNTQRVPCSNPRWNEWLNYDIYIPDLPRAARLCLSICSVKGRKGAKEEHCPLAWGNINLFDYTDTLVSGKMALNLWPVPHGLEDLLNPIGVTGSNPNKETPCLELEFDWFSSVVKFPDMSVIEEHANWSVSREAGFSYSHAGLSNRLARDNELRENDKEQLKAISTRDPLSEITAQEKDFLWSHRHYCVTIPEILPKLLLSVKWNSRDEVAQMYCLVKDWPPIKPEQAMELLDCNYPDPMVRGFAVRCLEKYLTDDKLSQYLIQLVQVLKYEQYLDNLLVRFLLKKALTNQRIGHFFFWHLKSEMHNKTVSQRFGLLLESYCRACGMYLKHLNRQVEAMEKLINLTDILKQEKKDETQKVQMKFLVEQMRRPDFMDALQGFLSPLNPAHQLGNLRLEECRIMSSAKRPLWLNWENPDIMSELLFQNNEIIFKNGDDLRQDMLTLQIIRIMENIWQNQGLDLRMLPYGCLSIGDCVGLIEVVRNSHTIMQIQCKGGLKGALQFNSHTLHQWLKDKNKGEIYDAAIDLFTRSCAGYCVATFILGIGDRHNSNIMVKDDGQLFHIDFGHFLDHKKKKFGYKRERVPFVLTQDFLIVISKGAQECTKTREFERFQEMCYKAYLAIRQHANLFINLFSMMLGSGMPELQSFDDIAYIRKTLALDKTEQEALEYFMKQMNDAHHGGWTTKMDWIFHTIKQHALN
T11 sequence (P51812 68-327 limits assumed): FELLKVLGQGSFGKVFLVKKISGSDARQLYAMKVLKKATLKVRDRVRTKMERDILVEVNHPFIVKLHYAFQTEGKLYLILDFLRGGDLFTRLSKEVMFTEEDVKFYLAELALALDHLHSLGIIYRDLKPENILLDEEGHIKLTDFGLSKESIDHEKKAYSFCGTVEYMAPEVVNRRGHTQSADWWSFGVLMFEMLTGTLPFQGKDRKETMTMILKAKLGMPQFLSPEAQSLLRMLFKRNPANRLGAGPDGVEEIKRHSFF
T3 sequence (Q9BVS4 whole entry): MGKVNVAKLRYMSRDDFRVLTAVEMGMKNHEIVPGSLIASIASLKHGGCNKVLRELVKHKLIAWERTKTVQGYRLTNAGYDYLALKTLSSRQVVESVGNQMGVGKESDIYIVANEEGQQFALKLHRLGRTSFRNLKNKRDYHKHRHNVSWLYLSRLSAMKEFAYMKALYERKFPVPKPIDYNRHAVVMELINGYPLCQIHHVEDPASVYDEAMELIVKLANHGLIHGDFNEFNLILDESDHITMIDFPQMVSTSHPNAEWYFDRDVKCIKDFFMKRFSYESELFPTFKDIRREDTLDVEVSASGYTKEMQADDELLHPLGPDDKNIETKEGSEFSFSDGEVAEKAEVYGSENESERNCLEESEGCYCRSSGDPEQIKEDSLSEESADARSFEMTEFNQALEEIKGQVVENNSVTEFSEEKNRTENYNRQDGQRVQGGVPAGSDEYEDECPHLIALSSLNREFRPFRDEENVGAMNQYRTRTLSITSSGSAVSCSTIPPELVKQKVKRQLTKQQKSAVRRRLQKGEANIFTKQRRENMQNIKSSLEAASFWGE
T6 sequence (P49336 whole entry): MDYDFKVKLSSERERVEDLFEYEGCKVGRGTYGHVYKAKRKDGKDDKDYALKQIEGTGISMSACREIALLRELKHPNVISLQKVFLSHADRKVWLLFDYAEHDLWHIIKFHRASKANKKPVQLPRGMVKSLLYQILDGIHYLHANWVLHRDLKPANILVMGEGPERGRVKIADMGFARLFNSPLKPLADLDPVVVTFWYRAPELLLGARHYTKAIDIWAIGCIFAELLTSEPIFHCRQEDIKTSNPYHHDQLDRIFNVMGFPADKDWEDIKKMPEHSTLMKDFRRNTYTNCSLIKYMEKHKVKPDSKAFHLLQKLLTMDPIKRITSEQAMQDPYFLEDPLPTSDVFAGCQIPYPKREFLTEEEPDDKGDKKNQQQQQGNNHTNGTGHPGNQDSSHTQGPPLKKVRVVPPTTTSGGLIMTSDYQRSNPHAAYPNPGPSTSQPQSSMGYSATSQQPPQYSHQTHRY
T7 sequence (Q9BWU1 whole entry): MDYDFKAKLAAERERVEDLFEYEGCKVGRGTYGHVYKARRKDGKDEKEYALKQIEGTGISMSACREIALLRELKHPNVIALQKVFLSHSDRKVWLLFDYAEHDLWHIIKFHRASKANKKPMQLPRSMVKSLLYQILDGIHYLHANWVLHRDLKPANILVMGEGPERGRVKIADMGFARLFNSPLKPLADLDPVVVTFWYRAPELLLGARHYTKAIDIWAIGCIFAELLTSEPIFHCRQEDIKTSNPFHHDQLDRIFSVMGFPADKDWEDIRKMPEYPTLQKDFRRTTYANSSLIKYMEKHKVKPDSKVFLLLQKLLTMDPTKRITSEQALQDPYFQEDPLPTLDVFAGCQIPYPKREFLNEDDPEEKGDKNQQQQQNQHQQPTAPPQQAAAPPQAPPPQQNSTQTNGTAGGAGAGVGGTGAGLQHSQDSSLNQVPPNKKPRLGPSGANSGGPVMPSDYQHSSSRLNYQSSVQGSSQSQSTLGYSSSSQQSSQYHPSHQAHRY
T5 sequence (P48729 whole entry): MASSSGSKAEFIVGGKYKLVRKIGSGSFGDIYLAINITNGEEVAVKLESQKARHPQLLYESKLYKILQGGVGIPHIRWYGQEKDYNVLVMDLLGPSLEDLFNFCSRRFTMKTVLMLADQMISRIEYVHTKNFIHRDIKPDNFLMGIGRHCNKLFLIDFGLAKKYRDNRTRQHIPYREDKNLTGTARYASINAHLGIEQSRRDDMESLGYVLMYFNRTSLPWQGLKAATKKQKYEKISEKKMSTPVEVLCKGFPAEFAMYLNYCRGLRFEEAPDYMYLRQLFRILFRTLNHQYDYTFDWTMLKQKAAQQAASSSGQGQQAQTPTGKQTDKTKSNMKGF

CN(C)C(=O)c1ccc(N2CCCN(c3ccnc4sc(C(N)=O)c(N)c34)CC2)cc1 [15u, 3-amino-4-(4-(4-(dimethylcarbamoyl)phenyl)-1,4-diazepan-1-yl)thieno[2,3-b]pyridine-2-carboxamide]
% Ctrl [1]: 78 % Ctrl
MYC-CAP-CR cell growth [2]: little effect
% Ctrl [3]: 88 % Ctrl
IC50 [4]: 30 nM
% Ctrl [5]: 90 % Ctrl
Kd [6]: 240 nM
Kd [7]: 5600 nM
Kd [8]: 230 nM
Kd [9]: 78 nM
Kd [10]: 65 nM
IC50 [11]: 27.6 nM
tumor volume and weight [12]: modest effect
average serum concentration at 8 hrs as % of Cmax [13]: 64.4%
% Ctrl [14]: 100 % Ctrl
% Ctrl [15]: 100 % Ctrl
effect on NFκB activation in CDK8/19-deficient cells [16]: no effect
response upon long-term treatment in vitro [17]: responsive
adverse effects and body weight [18]: no apparent adverse effects and no diminution of mouse body weight
xenograft tumor growth [18]: strongly suppressed the tumor growth
AUC [19]: 79.3 ng·h/mL
half-life [19]: 1.3 h
bioavailability ([19]; read-out: Bioavailability (F %)): 43%
% Ctrl [20]: 94 % Ctrl
% Ctrl [21]: 90 % Ctrl
mouse survival of the metastatic disease [22]: significantly increased mouse survival
ALP activity Assay EC200 [23]: 31.9 nM
weight loss [24]: 5-10%
mouse body weights ([25]; long-term treatment): no detrimental effects
final tumor weights [25, 28]: significantly lower
tumor volume [25, 28]: significant reduction in tumor volume

[2H]C([2H])([2H])N(C(=O)c1ccc(N2CCCN(c3ccnc4sc(C(N)=O)c(N)c34)CC2)cc1)C([2H])([2H])[2H] [15u_D6, 3-amino-4-(4-(4-(bis(methyl-d3)carbamoyl)phenyl)-1,4-diazepan-1-yl)thieno[2,3-b]pyridine-2-carboxamide]
% Ctrl [1]: 100 % Ctrl
% Ctrl [3]: 100 % Ctrl
% Ctrl [5]: 78 % Ctrl
PK (AUC 0-8 h) versus undeuterated parent [26]: slightly improved the PK
% Ctrl [14]: 81 % Ctrl
% Ctrl [15]: 92 % Ctrl
IC50 [27]: 7.7 nM
% Ctrl [20]: 100 % Ctrl
% Ctrl [21]: 64 % Ctrl
